According to patent US8076324B2, “Di(hetero)arylcyclohexane derivatives, their preparation, their use and pharmaceutical compositions comprising them” (Sanofi-Aventis, priority 2007, dated 2011):

These compounds were tested against T1, myocardial ATP-sensitive potassium channel (SUR2A/Kir6.2) (UniProt Q61743+Q63563) (assay: Rubidium efflux test on HEK293 cells transfected with SUR2A and Kir6.2 (myocardial action)). Settings: HEK293 cells transfected with SUR2A/Kir6.2; KATP channels opened by rilmakalim; 25 min incubation; read-out: IC50 values for the inhibition of the rubidium efflux.
T1 construct: expressed in transfected cells
Assay type: cell-based, SUR2A from the rat, Kir6.2 from the mouse
Protocol: 1) Action on the SUR2A/Kir6.2 potassium channel (myocardial action) The action of the compounds on the ion transport through the myocardial ATP-sensitive potassium channel (SUR2A/Kir6.2) was determined in the rubidium efflux test system described below on human embryonic kidney cells HEK293 which were transfected with the components SUR2A and Kir6.2 (cf. Weyermann et al., Naunyn-Schmiedeberg's Arch. Pharmacol. 369, 374-381 (2004)).
The HEK293 cells were cultured at 37° C. in a humidified air atmosphere with 7% carbon dioxide in minimal essential medium with Earle's salts and L-glutamine (MEM, Gibco), which was supplemented with 10% fetal calf serum and zeozin (0.36 mg/ml) and geneticin (0.75 mg/ml). The transfection of the cells and the preparation of a cell line with stable expression of Kir6.2 from the mouse (accession number AF037313) and SUR2A from the rat (accession number D83598/L40624) were carried out as described in Giblin et al., J. Biol. Chem. 274, 22652-22659 (1999).
60 000 transfected cells per well were inoculated into a poly-D-lysine-coated 96-well microtiter plate (Greiner #650 201). After incubation for 24 h at 37° C., the cells were washed three times with buffer 1 (150 mM NaCl, 2 mM CaCl2, 0.8 mM NaH2PO4, 1 mM MgCl2, 5 mM glucose, 25 mM HEPES, pH=7.4). Subsequently, the buffer solution was replaced by 100 μl of rubidium loading buffer (buffer 1 with 5.4 mM RbCl) and the cells were incubated for a further 3 h at 37° C. The rubidium loading buffer was then removed by washing the cells three times with 200 μl each of potassium chloride wash buffer (buffer 1 with 5.4 mM KCl). After addition of the test substances (70 μl; dissolved in potassium chloride wash buffer with addition of DMSO), the KATP channels of the cells were opened by addition of 70 μl of rilmakalim (2 μM) (cf. Krause et al., Pflügers Arch. 429, 625-635 (1995)) and the cells were incubated at 37° C. for 25 min. Subsequently, the cell supernatants were transferred to a new 96-well microtiter plate and the cells were lyzed by addition of 200 μl of lysis buffer (buffer 1 with 1% Triton X-100). The concentrations of Rb^+ in the cell supernatant and in the cell lyzate were measured by means of atomic absorption spectroscopy using an Al 1200 apparatus (Aurora Instruments Ltd.).
The Rb^+ efflux rate was calculated as [Rb^+SN]/[Rb^+total], wherein [Rb^+SN] is the amount of Rb^+ in the cell supernatant and [Rb^+total] is the sum of the amounts of Rb^+ in the cell supernatant and cell lyzate. IC50 values for the inhibition of the rubidium efflux were calculated with the aid of the Hill equation.

T1 sequence (Q63563 whole entry): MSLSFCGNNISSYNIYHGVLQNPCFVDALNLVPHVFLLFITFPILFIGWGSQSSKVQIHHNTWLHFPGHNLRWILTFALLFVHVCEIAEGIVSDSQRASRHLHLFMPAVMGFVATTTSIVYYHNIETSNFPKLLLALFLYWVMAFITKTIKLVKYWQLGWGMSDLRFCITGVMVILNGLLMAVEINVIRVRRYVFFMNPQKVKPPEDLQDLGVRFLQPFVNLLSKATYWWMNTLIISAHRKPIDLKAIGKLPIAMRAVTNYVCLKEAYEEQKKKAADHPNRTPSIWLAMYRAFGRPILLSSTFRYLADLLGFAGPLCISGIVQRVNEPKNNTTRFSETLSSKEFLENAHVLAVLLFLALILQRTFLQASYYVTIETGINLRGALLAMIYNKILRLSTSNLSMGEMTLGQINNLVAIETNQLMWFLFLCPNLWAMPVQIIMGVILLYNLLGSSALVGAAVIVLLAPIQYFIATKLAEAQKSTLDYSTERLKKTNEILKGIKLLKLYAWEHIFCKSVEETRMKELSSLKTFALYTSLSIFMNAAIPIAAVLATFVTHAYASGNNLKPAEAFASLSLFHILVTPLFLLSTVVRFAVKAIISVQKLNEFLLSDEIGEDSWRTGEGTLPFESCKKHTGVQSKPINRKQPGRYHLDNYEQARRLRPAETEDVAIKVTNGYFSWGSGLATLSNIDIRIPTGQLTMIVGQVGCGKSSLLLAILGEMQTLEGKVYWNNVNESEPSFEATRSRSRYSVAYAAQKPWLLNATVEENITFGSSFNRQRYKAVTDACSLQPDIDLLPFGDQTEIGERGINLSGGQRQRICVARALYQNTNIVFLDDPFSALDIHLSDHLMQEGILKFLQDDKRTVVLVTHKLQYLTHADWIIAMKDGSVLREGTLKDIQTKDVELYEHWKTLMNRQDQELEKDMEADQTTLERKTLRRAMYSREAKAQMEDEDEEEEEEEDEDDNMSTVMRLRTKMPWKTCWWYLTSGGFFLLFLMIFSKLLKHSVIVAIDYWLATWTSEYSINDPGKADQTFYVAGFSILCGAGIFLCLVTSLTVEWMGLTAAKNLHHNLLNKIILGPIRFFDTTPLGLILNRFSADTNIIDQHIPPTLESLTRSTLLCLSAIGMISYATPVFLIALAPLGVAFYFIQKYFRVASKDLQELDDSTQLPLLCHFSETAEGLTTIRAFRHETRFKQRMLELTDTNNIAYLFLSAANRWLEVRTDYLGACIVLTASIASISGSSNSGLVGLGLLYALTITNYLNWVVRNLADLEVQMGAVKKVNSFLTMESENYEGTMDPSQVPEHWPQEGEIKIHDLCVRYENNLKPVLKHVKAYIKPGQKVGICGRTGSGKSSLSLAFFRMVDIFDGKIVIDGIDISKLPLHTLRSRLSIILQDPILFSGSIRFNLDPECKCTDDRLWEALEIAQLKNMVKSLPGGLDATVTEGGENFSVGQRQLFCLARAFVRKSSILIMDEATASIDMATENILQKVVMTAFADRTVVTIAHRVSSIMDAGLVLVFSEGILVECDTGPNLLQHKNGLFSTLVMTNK
T1 sequence (Q61743 whole entry): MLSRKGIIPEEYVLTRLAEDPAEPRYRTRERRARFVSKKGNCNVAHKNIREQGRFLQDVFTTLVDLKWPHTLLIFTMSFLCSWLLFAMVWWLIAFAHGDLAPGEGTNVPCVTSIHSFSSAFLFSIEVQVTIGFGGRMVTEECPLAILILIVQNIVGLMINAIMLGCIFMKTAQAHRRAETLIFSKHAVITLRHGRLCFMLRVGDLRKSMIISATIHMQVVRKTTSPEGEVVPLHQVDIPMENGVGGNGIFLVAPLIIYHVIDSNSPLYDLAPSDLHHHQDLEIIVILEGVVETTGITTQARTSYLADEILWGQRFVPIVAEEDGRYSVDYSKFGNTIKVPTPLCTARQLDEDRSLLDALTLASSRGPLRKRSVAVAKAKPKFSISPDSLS

IC50, < 1000 nM:
CCCn1c(Cl)c(C)nc1[C@]1(OCCOC)CC[C@](C(=O)O)(c2ccccc2)CC1 [Example 390]
O=C(O)C1(c2ccccc2)CCC(OCC2CC2)(c2ccc(-c3ccc(F)c(Br)c3)cc2)CC1 (centres unmarked) [Example 275]
CCCn1c(Cl)c(C)nc1[C@]1(OCC2CC2)CC[C@](C(=O)O)(c2ccccc2)CC1 [Example 388]
Cc1nc([C@]2(OCC3CC3)CC[C@](C(=O)O)(c3ccc(F)cc3)CC2)n(CC2CC2)c1C [Example 365]
Cc1c(F)cc([C@]2(OCC3CC3)CC[C@](C(=O)O)(c3ccc(F)cc3)CC2)cc1S(=O)(=O)C(C)C [Example 304-4, Cis-4-Cyclopropylmethoxy-4-[3-fluoro-4-methyl-5-(propane-2-sulfonyl)phenyl]-1-(4-fluorophenyl)cyclohexanecarboxylic Acid]
O=C(O)[C@]1(c2ccc(F)cc2)CC[C@@](OCC2CC2)(c2ccc(F)cn2)CC1 [Example 263, Cis-4-Cyclopropylmethoxy-1-(4-fluorophenyl)-4-(5-fluoropyridin-2-yl)cyclohexanecarboxylic Acid]
O=C(O)[C@]1(c2ccccc2)CC[C@](OCC2CC2)(c2nc(-c3ccccc3)n(CC3CC3)n2)CC1 [Example 270, Trans-4-Cyclopropylmethoxy-4-(1-cyclopropylmethyl-5-phenyl-1H-[1,2,4]triazol-3-yl)-1-phenylcyclohexanecarboxylic Acid]
C=C(CO[C@]1(c2nccn2CC2CC2)CC[C@@](C(=O)O)(c2ccccc2)CC1)c1ccccc1 [Example 495, Cis-4-(1-Cyclopropylmethyl-1H-imidazol-2-yl)-1-phenyl-4-(2-phenylallyloxy)cyclohexanecarboxylic Acid]
Cc1nc([C@]2(OCC3CC3)CC[C@@](C(=O)O)(c3ccc(F)cc3)CC2)n(CC2CC2)c1Br [Example 369]
CS(=O)(=O)c1cc(F)ccc1C1(OCC2CC2)CCC(C(=O)O)(c2ccc(F)cc2)CC1 (centres unmarked) [Example 253]
O=C(O)C1(c2ccccc2)CCC(OCC2CC2)(c2cnc3ccccc3c2)CC1 (centres unmarked) [Example 152]
Cc1nc([C@]2(OCC3CC3)CC[C@](C(=O)O)(c3ccc(OC(F)(F)F)cc3)CC2)n(CC2CC2)c1Cl [Example 410]
Cc1nc([C@]2(OCCC(C)C)CC[C@](C(=O)O)(c3ccccc3)CC2)n(CC2CC2)c1Br [Example 375]
O=C(O)[C@]1(c2ccccc2)CC[C@@](OCC2CC2)(c2ccnc(-c3ccccc3)c2)CC1 [Example 488, Cis-4-Cyclopropylmethoxy-1-phenyl-4-(2-phenylpyridin-4-yl)cyclohexanecarboxylic Acid]
COC1(c2ccc(SC)cc2)CCC(C(=O)O)(c2ccccc2)CC1 (centres unmarked) [Example 163, 4-Methoxy-4-(4-methylsulfanylphenyl)-1-phenylcyclohexanecarboxylic Acid]
O=C(O)C1(c2ccccc2)CCC(OCC2CC2)(c2cccc(C3CC3)c2)CC1 (centres unmarked) [Example 182, 4-Cyclopropylmethoxy-4-(3-cyclopropylphenyl)-1-phenylcyclohexanecarboxylic Acid]
CC(C)(C)c1nc([C@]2(OCC3CC3)CC[C@](C(=O)O)(c3ccccc3)CC2)n(CC2CC2)c1Cl [Example 393]
COC1(c2cccc(C(F)(F)F)c2)CCC(C(=O)O)(c2ccccc2)CC1 (centres unmarked) [Example 125]
CS(=O)(=O)c1cc(F)cc([C@]2(OCC3CC3)CC[C@](C(=O)O)(c3ccc(F)cc3)CC2)c1 [Example 301, Cis-4-Cyclopropylmethoxy-4-(3-fluoro-5-methanesulfonylphenyl)-1-(4-fluorophenyl)cyclohexanecarboxylic Acid]
Cc1c(Br)nc([C@]2(OCCC(C)C)CC[C@](C(=O)O)(c3ccccc3)CC2)n1CC1CC1 [Example 374]
CS(=O)(=O)c1ccc(F)cc1C1(OCC2CC2)CCC(C(=O)O)(c2ccc(F)cc2)CC1 (centres unmarked) [Example 258]
C=Cc1ccccc1C1(OC)CCC(C(=O)O)(c2ccccc2)CC1 (centres unmarked) [Example 135]
O=C(O)[C@]1(c2ccccc2)CC[C@@](OCC2CC2)(c2ncc(C(F)(F)F)n2CC2CC2)CC1 [Example 378]
Cc1nc([C@]2(OCC3CC3)CC[C@](C(=O)O)(c3ccccc3)CC2)n(CC2CC2)c1Cl [Example 382]
CCCOC1(c2cccc(S(C)(=O)=O)c2)CCC(C(=O)O)(c2ccccc2)CC1 (centres unmarked) [Example 168]
Cc1nc([C@]2(OCC3CC3)CC[C@](C(=O)O)(c3cccnc3)CC2)n(CC2CC2)c1Cl [Example 407]
O=C(O)[C@]1(c2ccccc2)CC[C@@](OCC2(c3ccccc3)COC2)(c2ccc(F)cc2)CC1 [Example 499, 4-(4-Fluorophenyl)-1-phenyl-4-(3-phenyloxetan-3-ylmethoxy)cyclohexanecarboxylic Acid]
COc1ccc(-c2cc([C@]3(OCC4CC4)CC[C@@](C(=O)O)(c4ccccc4)CC3)n(CC3CC3)n2)cc1 [Example 319, Trans-4-Cyclopropylmethoxy-4-[2-cyclopropylmethyl-5-(4-methoxyphenyl)-2H-pyrazol-3-yl]-1-phenylcyclohexanecarboxylic Acid]
O=C(O)C1(c2ccccc2)CCC(O)(c2ccc(C(F)(F)F)cc2F)CC1 (centres unmarked) [Example 103]
CCOC1(c2ccc(F)cc2)CCC(C(=O)O)(c2ccccc2)CC1 (centres unmarked) [Example 141]
COC1(c2ccc(F)cc2)CCC(C(=O)O)(c2cccc(F)c2)CC1 (centres unmarked) [Example 234]
O=C(O)[C@]1(c2ccccc2)CC[C@](OCC2CC2)(c2ccnc(-c3ccccc3)c2)CC1 [Example 489, Trans-4-Cyclopropylmethoxy-1-phenyl-4-(2-phenylpyridin-4-yl)cyclohexanecarboxylic Acid]
O=C(O)[C@]1(c2ccc(F)cc2)CC[C@](Oc2ccccc2)(c2nc3ccccc3n2CC2CC2)CC1 [Example 406]
CCCn1c(Cl)c(C)nc1[C@]1(OCCC(C)(C)C)CC[C@](C(=O)O)(c2ccccc2)CC1 [Example 389]
COc1ccc(C2(OC)CCC(C(=O)O)(c3ccccc3)CC2)cc1F (centres unmarked) [Example 131]
O=C(O)C1(c2ccccc2)CCC(O)(c2ccc(Br)cc2)CC1 (centres unmarked) [Example 105]
Cc1ccc([C@]2(C(=O)O)CC[C@](OCC3CC3)(c3nc4ccccc4n3CC3CC3)CC2)cc1 [Example 412]
CC(C)S(=O)(=O)c1cc(F)cc([C@]2(OCC3CC3)CC[C@](C(=O)O)(c3ccc(F)cc3)CC2)c1 [Example 304-1, Cis-4-Cyclopropylmethoxy-1-(4-fluorophenyl)-4-[3-fluoro-5-(propane-2-sulfonyl)phenyl]cyclohexanecarboxylic Acid]
CCCOC1(c2cc(F)ccc2SC)CCC(C(=O)O)(c2ccc(F)cc2)CC1 (centres unmarked) [Example 248]
Cc1c(Br)nc([C@]2(OCC3CC3)CC[C@](C(=O)O)(c3ccccc3)CC2)n1CC1CC1 [Example 373]
O=C(O)[C@]1(c2ccccc2)CC[C@](OCC2CC2)(c2nc3cc(F)ccc3n2CC2CC2)CC1 [Example 453]
CCCOC1(c2ccc(F)cc2)CCC(C(=O)O)(c2ccccc2)CC1 (centres unmarked) [Example 148]
O=C(O)[C@]1(c2ccc(F)cc2)CC[C@@](OCC2CC2)(c2nccn2CC2CC2)CC1 [Example 364]
COC1(c2ccc(F)cc2)CCC(C(=O)O)(c2cccc(OC(F)(F)F)c2)CC1 (centres unmarked) [Example 237]
O=C(O)[C@]1(c2ccccc2)CC[C@@](OCC2CC2)(c2ccc(F)cn2)CC1 [Example 267, Cis-4-Cyclopropylmethoxy-4-(5-fluoropyridin-2-yl)-1-phenylcyclohexanecarboxylic Acid]
COC1(c2ccc(F)cc2)CCC(C(=O)O)(c2ccc(OC(F)(F)F)cc2)CC1 (centres unmarked) [Example 236]
COC1(c2cnc3ccccc3c2)CCC(C(=O)O)(c2ccccc2)CC1 (centres unmarked) [Example 136]
